In one assay the target is T1, HDAC6 human recombinant (Homo sapiens, UniProt Q9UBN7).
T1 construct: purchased Calbiochem 382180
T1 sequence (Q9UBN7 1-1215): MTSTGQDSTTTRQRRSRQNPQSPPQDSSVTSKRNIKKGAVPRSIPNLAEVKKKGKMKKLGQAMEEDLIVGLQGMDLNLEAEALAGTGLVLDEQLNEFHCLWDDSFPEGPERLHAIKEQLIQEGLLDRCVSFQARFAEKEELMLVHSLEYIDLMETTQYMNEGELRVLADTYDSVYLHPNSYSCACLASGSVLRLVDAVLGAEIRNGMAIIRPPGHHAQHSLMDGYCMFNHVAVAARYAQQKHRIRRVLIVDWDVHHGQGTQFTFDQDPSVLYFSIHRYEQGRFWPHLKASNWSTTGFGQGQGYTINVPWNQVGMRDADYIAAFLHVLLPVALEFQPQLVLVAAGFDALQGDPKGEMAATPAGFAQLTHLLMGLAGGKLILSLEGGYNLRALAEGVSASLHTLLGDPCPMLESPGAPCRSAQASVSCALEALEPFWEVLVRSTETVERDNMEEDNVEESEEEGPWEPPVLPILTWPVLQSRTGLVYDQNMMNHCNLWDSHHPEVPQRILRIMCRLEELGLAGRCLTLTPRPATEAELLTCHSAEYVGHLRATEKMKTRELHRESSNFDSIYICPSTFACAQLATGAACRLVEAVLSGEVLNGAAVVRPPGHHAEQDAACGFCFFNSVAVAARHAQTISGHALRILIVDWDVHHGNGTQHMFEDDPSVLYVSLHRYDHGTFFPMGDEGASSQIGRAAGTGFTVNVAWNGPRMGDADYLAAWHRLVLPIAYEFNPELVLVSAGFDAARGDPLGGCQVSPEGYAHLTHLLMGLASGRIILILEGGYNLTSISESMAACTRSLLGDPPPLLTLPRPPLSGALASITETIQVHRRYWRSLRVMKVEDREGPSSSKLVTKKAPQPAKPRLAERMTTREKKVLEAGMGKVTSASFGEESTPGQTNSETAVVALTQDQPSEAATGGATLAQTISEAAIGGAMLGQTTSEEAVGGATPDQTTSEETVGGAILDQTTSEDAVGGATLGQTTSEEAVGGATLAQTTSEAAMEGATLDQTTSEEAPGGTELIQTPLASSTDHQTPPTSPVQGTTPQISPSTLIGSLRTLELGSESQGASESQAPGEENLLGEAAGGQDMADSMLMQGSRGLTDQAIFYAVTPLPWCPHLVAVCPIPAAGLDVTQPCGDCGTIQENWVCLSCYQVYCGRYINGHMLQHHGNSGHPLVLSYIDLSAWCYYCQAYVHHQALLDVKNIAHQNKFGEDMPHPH
Kind of assay: HDAC enzyme activity inhibition (in vitro), HDAC6 assay. The assay is classed as biochemical. The settings on record: samples at 0.1, 1, 10, 100 and 1000 nM; 37° C. 60 minutes; fluorescence Ex 390, Em 460; read-out: HDAC6 IC50. In short, it runs like this:
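HDAC6 human recombinant enzyme with fluorimetric substrate; […]. Reaction 60 min at 37° C, then developer 30 min at 37° C; fluorescence read at Ex 390/Em 460.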

A further assay addresses T2, HDAC1 (Homo sapiens, UniProt Q13547).
T2 construct: purchased Enzolifesciences BML-AK511
The assay can be described thus: HDAC enzyme activity inhibition (in vitro), HDAC1 Fluorimetric Drug Discovery Assay Kit. The assay is classed as biochemical. The settings on record: samples at 100, 1000 and 10000 nM; 37° C. 60 minutes; fluorescence Ex 390, Em 460; read-out: HDAC1 IC50. Put shortly: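 Compounds at 100, 1000, 10000 nM (HDAC1) or 0.1, 1, 10, 100, 1000 nM (HDAC6); 37° C, 60 min; developer, 37° C, 30 min; fluorescence Ex 390/Em 460.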

T2 sequence (Q13547 whole entry): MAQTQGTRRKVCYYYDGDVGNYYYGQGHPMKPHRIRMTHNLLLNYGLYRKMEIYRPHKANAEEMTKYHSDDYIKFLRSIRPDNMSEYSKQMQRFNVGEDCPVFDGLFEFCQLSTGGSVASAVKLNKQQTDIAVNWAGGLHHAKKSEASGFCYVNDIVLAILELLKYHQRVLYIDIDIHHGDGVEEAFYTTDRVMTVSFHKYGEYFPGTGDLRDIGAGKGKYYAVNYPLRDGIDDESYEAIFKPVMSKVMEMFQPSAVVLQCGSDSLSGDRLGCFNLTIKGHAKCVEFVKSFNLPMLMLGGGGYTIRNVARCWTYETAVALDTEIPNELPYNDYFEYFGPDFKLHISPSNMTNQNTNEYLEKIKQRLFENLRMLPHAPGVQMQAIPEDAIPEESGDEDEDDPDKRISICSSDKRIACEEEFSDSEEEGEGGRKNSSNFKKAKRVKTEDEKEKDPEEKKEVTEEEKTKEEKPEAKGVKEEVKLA

For `CS(=O)(=O)N1CCC(n2c(=O)n(Cc3ccc(-c4nnc(C(F)F)o4)cn3)c3cc(F)c(F)cc32)CC1` [Compound 193, 1-((5-(5-(difluoromethyl)-1,3,4-oxadiazole-2-yl)pyridine-2-yl)methyl)-5,6-difluoro-3-(1-(methylsulfonyl)piperidine-4-yl)-1,3-dihydro-2H-benzo[d]imidazole-2-one], the IC50 at HDAC6 human recombinant is 48 nM; at HDAC1, above 10000 nM.

`CS(=O)(=O)N1CCC(n2c(=O)n(Cc3ccc(-c4nnc(C(F)F)o4)cc3)c3cc(F)c(F)cc32)CC1` [Compound 194, 1-(4-(5-(difluoromethyl)-1,3,4-oxadiazole-2-yl)benzyl)-5,6-difluoro-3-(1-(methylsulfonyl)piperidine-4-yl)-1,3-dihydro-2H-benzo[d]imidazole-2-one]: the IC50 on HDAC6 human recombinant is 84 nM; on HDAC1, above 10000 nM.

As to `CS(=O)(=O)N1CCC(n2c(=O)n(Cc3ccc(-c4nnc(C(F)F)o4)cn3)c3cc(C(F)(F)F)ccc32)CC1` [Compound 195, 3-((5-(5-(difluoromethyl)-1,3,4-oxadiazole-2-yl)pyridine-2-yl)methyl)-1-(1-(methylsulfonyl)piperidine-4-yl)-5-(trifluoromethyl)-1,3-dihydro-2H-benzo[d]imidazole-2-one], the IC50 is 50 nM at HDAC6 human recombinant and above 10000 nM on HDAC1.

For `CS(=O)(=O)N1CCC(n2c(=O)n(Cc3ccc(-c4nnc(C(F)F)o4)cc3F)c3cc(C(F)(F)F)ccc32)CC1` [Compound 196, 3-(4-(5-(difluoromethyl)-1,3,4-oxadiazole-2-yl)-2-fluorobenzyl)-1-(1-(methylsulfonyl)piperidine-4-yl)-5-(trifluoromethyl)-1,3-dihydro-2H-benzo[d]imidazole-2-one], the IC50 is 126 nM at HDAC6 human recombinant and above 10000 nM at HDAC1.

`CC(=O)N1CCC(c2ccc3c(c2)n(C2CCN(C)CC2)c(=O)n3Cc2ccc(-c3nnc(C(F)F)o3)cn2)CC1` [Compound 197, 5-(1-acetylpiperidine-4-yl)-1-((5-(5-(difluoromethyl)-1,3,4-oxadiazole-2-yl)pyridine-2-yl)methyl)-3-(1-methylpiperidine-4-yl)-1,3-dihydro-2H-benzo[d]imidazole-2-one]: the values for the IC50 at HDAC6 human recombinant and on HDAC1 were 235 nM and above 10000 nM, respectively.

As for `CN1CCC(n2c(=O)n(Cc3ccc(-c4nnc(C(F)F)o4)cn3)c3ccc(C4CCN(S(C)(=O)=O)CC4)cc32)CC1` [Compound 198, 1-((5-(5-(difluoromethyl)-1,3,4-oxadiazole-2-yl)pyridine-2-yl)methyl)-3-(1-methylpiperidine-4-yl)-5-(1-(methylsulfonyl)piperidine-4-yl)-1,3-dihydro-2H-benzo[d]imidazole-2-one], the IC50 on HDAC6 human recombinant was 195 nM; at HDAC1, above 10000 nM.

Turning to `CN1CCC(c2ccc3c(c2)n(C2CCN(C)CC2)c(=O)n3Cc2ccc(-c3nnc(C(F)F)o3)cn2)CC1` [Compound 199, 1-((5-(5-(difluoromethyl)-1,3,4-oxadiazole-2-yl)pyridine-2-yl)methyl)-3,5-bis(1-methylpiperidine-4-yl)-1,3-dihydro-2H-benzo[d]imidazole-2-one], the values for the IC50 on HDAC6 human recombinant and on HDAC1 were 175 nM and above 10000 nM, respectively.

As to `CS(=O)(=O)N1CCC(n2c(=O)n(Cc3ccc(-c4nnc(C(F)F)o4)cn3)c3ccc(Cl)cc32)CC1` [Compound 200, 5-chloro-1-((5-(5-(difluoromethyl)-1,3,4-oxadiazole-2-yl)pyridine-2-yl)methyl)-3-(1-(methylsulfonyl)piperidine-4-yl)-1,3-dihydro-2H-benzo[d]imidazole-2-one], the IC50 is 40 nM at HDAC6 human recombinant and above 10000 nM on HDAC1.

As for `CS(=O)(=O)N1CCC(n2c(=O)n(Cc3ccc(-c4nnc(C(F)F)o4)cc3F)c3ccc(Cl)cc32)CC1` [Compound 201, 5-chloro-1-(4-(5-(difluoromethyl)-1,3,4-oxadiazole-2-yl)-2-fluorobenzyl)-3-(1-(methylsulfonyl)piperidine-4-yl)-1,3-dihydro-2H-benzo[d]imidazole-2-one], the results for the IC50 at HDAC6 human recombinant and at HDAC1 were 70 nM and above 10000 nM, respectively.

Consider `CS(=O)(=O)N1CCC(n2c(=O)n(Cc3ccc(-c4nnc(C(F)F)o4)cc3)c3ccc(Cl)cc32)CC1` [Compound 202, 5-chloro-1-(4-(5-(difluoromethyl)-1,3,4-oxadiazole-2-yl)benzyl)-3-(1-(methylsulfonyl)piperidine-4-yl)-1,3-dihydro-2H-benzo[d]imidazole-2-one], for which the IC50 is 139 nM at HDAC6 human recombinant and above 10000 nM on HDAC1.

`CS(=O)(=O)N1CCC(n2c(=O)n(Cc3ccc(-c4nnc(C(F)F)o4)cn3)c3ncccc32)CC1` [Compound 203, 3-((5-(5-(difluoromethyl)-1,3,4-oxadiazole-2-yl)pyridine-2-yl)methyl)-1-(1-(methylsulfonyl)piperidine-4-yl)-1,3-dihydro-2H-imidazo[4,5-b]pyridine-2-one]: the results for the IC50 on HDAC6 human recombinant and at HDAC1 were 105 nM and above 10000 nM, respectively.

Take `CS(=O)(=O)N1CCC(n2c(=O)n(Cc3ccc(-c4nnc(C(F)F)o4)cc3F)c3ncccc32)CC1` [Compound 204, 3-(4-(5-(difluoromethyl)-1,3,4-oxadiazole-2-yl)-2-fluorobenzyl)-1-(1-(methylsulfonyl)piperidine-4-yl)-1,3-dihydro-2H-imidazo[4,5-b]pyridine-2-one]: the IC50 at HDAC6 human recombinant is 140 nM; on HDAC1, above 10000 nM.

`CS(=O)(=O)N1CCC(n2c(=O)n(Cc3ccc(-c4nnc(C(F)F)o4)cc3)c3ncccc32)CC1` [Compound 205, 3-(4-(5-(difluoromethyl)-1,3,4-oxadiazole-2-yl)benzyl)-1-(1-(methylsulfonyl)piperidine-4-yl)-1,3-dihydro-2H-imidazo[4,5-b]pyridine-2-one]: the half-inhibitory concentration (IC50) on HDAC6 human recombinant was 739 nM; at HDAC1, above 10000 nM.

Turning to `CS(=O)(=O)N1CCC(n2c(=O)n(Cc3ccc(-c4nnc(C(F)F)o4)cn3)c3ccccc32)CC1` [Compound 206, 1-((5-(5-(difluoromethyl)-1,3,4-oxadiazole-2-yl)pyridine-2-yl)methyl)-3-(1-(methylsulfonyl)piperidine-4-yl)-1,3-dihydro-2H-benzo[d]imidazole-2-one], the IC50 on HDAC6 human recombinant was 58 nM; on HDAC1, above 10000 nM.

For `CC(C)(C)C(=O)Nc1ccc2c(c1)n(Cc1ccccc1)c(=O)n2Cc1ccc(-c2nnc(C(F)F)o2)cn1` [Compound 207, N-(3-benzyl-1-((5-(5-(difluoromethyl)-1,3,4-oxadiazole-2-yl)pyridine-2-yl)methyl)-2-oxo-2,3-dihydro-1H-benzo[d]imidazole-5-yl)pivalamide], the values for the IC50 on HDAC6 human recombinant and at HDAC1 were 173 nM and above 10000 nM, respectively.

In the case of `Cn1c(=O)n(Cc2ccc(-c3nnc(C(F)F)o3)cn2)c2ccc(-c3cccnc3)cc21` [Compound 208, 1-((5-(5-(difluoromethyl)-1,3,4-oxadiazole-2-yl)pyridine-2-yl)methyl)-3-methyl-5-(pyridine-3-yl)-1,3-dihydro-2H-benzo[d]imidazole-2-one], the IC50 on HDAC6 human recombinant is 13 nM; at HDAC1 it was above 10000 nM.

As for `Cn1c(=O)n(Cc2ccc(-c3nnc(C(F)F)o3)cn2)c2ccc(-c3ccncc3)cc21` [Compound 209, 1-((5-(5-(difluoromethyl)-1,3,4-oxadiazole-2-yl)pyridine-2-yl)methyl)-3-methyl-5-(pyridine-4-yl)-1,3-dihydro-2H-benzo[d]imidazole-2-one], the IC50 was 17 nM on HDAC6 human recombinant and above 10000 nM on HDAC1.

As a reminder, the IC50 is the concentration that gives 50% inhibition.

For the origin of these results see US20230092890A1, “1, 3, 4-Oxadiazole derivative compounds as histone deacetylase 6 inhibitor, and the pharmaceutical composition comprising the same” (Chong Kun Dang Pharmaceutical Corp., priority 2019, published 2023).
